This is an account of results in publication PMC8587515, “Cytotoxic and Anti-Inflammatory Activities of Dihydroisocoumarin and Xanthone Derivatives from Garcinia picrorhiza” (Molecules, 2021).

Like-named read-outs stand apart in the source and are kept apart here. A value given as a limit tells only on which side of the number the result lay.

Data set [1] has as its system NO production in LPS-IFN-γ-induced BV-2 microglial cells. In words: NO production inhibition assay (Griess), BV-2. Format: cell-based, mouse. Conditions: for IC50: Mus musculus, BV-2, LPS-IFN-γ-induced, 16 h, mean ± SEM (n = 6), read-out: IC50, iNOS (inhibition of NO production), BV-2; for suppression of NO production, BV-2: final concentration of 50 µM, preliminary screen; for IC50 of NO inhibition lower than the cytotoxic activity, BV-2: ratio cytotoxicity IC50 / NO inhibition IC50 in BV-2 cells. Here is the method: (§1) Compounds 1–8 were screened for their inhibitory effects on nitric oxide production in LPS-IFN-γ activated RAW 264.7 macrophages and BV-2 microglial cells at a final concentration of 50 µM. […] A deprenylated furanoxanthone structure with ortho hydroxy group in ring B as in 7 might be important to enhance the inhibitory effect when compared to 6 and 8.
(§2) The iNOS inhibitory activity of the isolated compounds and respective cytotoxicity was determined using a previously described protocol. Briefly, BV-2 mouse microglial (25,000 cells/well) and RAW 264.7 mouse macrophage (100,000 cells/well) cell lines were seeded into 96-well plates in high glucose Dulbecco’s Modified Eagle’s Medium (DMEM, Gibco) containing 4 mM L-glutamine, 10% FBS, 2% HEPES, 1% penicillin/streptomycin, and 0.5% amphotericin B. After incubation for 24 h at 37 °C in a 5% CO2 humidified atmosphere, the cells were stimulated with 0.05% LPS (Sigma) and 0.025% interferon-γ (Roche Diagnostics, Mannheim, Germany) and treated with different concentrations (5–100 μM) of the tested compounds. The level of NO production in cell culture supernatants was determined using Griess reagent (Sigma) by photocolorimetric analysis after 16 h of incubation, using a Hidex Sense Microplate Reader (Hidex, Turku, Finland). Fifty microliters of XTT reagent (Sigma, Kit II) was then added into the same plates for cell viability measurement after 60 min incubation. L-NMMA (Alexis, Grünberg, Germany) 100 µM was used as the positive control, while 1% DMSO and digitonin (Roth, Karlsruhe, Germany) 400 µM were used as the vehicle and negative control, respectively. The assays were conducted in triplicates and repeated in two independent experiments. IC50 values were determined by graphical analysis using GraphPad Prism 7 (GraphPad Software, La Jolla, CA, USA).
For orientation: Griess reagent forms a coloured azo dye with nitrite.

Data set [2] has as its system Hep G2 (human hepatocellular carcinoma). In words: MTT cytotoxic activity assay, Hep G2. Format: cell-based. The note with it: HepG2, 72 h, mean ± SEM of three replicates. Here is the method:
(§3) The cytotoxic activity of the isolated compounds was evaluated using the MTT viability assay with doxorubicin as the positive control and the results are presented in Table 2.
(§4) The MTT colorimetric method was performed to evaluate cytotoxic activity of the isolated compounds against human epidermoid carcinoma (KB; ATCC CCL17), human cervical carcinoma (HeLa S3; ATCC CCL2-2), human colon adenocarcinoma (HT-29; ATCC HTB-38), human breast adenocarcinoma (MCF-7; ATCC HTB-22), and human hepatocellular carcinoma (Hep G2; ATCC HB-8065) cell lines according to the previous method. […] After centrifugation at 1400 rpm for 5 min at 4 °C, the supernatant was decanted and DMSO (100 µL/well) was added to allow formazan product solubilization, which was subsequently measured by a microplate reader (Tecan Trading AG, Switzerland) at wavelength 550 nm. […] The results are expressed as the mean values of three replicates for three independent experiments. IC50 values were determined by graphical analysis using SigmaPlot 10 (Systat Software Inc., San Jose, CA, USA), obtained by plotting the cell viability percentage versus sample concentration.
In general terms: Tetrazolium assays rely on reduction of a dye to a coloured formazan, in cell work by metabolically active cells.

Data set [3] concerns MCF-7 (human breast adenocarcinoma). In words: MTT cytotoxic activity assay, MCF-7. Format: cell-based. The note with it: MCF7, 72 h, mean ± SEM of three replicates. The method, then: as §3, §4
In data set [4] the test system is HT-29 (human colon adenocarcinoma). In words: MTT cytotoxic activity assay, HT-29. Format: cell-based. The note with it: 72 h, mean ± SEM of three replicates. The method, then: as §3, §4
Data set [5] is described as follows: Cytotoxicity (XTT cell viability), BV-2. Format: cell-based. The note with it: mouse, BV-2 microglial cells, LPS/IFN-γ-stimulated, LPS-IFN-γ-induced cells, mean ± SEM (n = 6). The method, then:
as §1, §2

Data set [6] concerns HeLa S3 (human cervical carcinoma). In words: MTT cytotoxic activity assay, HeLa S3. Format: cell-based. Conditions: 72 h, mean ± SEM of three replicates. The method, then: as §3
(§5) The MTT colorimetric method was performed to evaluate cytotoxic activity of the isolated compounds against human epidermoid carcinoma (KB; ATCC CCL17), human cervical carcinoma (HeLa S3; ATCC CCL2-2), human colon adenocarcinoma (HT-29; ATCC HTB-38), human breast adenocarcinoma (MCF-7; ATCC HTB-22), and human hepatocellular carcinoma (Hep G2; ATCC HB-8065) cell lines according to the previous method. The cancer cells were cultured in MEM containing 10% fetal bovine serum in the presence of 100 U/mL penicillin and 100 μg/mL streptomycin sulphate (Gibco, Rockville, MD, USA), seeded in a 96-well plate (3000 cells/well), and pre-incubated at 37 °C for 24 h in a 5% CO2 humidified atmosphere. The tested compounds with serial concentrations (0.3–100 μM) were added and incubated for a further 72 h in the same condition. At the end of treatment, 20 µL of MTT solution (5 mg/mL in PBS, Sigma, St. Louis, MI, USA) was added to each well and further incubated for 3 h. After centrifugation at 1400 rpm for 5 min at 4 °C, the supernatant was decanted and DMSO (100 µL/well) was added to allow formazan product solubilization, which was subsequently measured by a microplate reader (Tecan Trading AG, Switzerland) at wavelength 550 nm. Control cells were treated with 0.1% DMSO. Doxorubicin (tested concentrations: 0.01–3.0 μM, Sigma) was used as the positive control. The results are expressed as the mean values of three replicates for three independent experiments. IC50 values were determined by graphical analysis using SigmaPlot 10 (Systat Software Inc., San Jose, CA, USA), obtained by plotting the cell viability percentage versus sample concentration.

The subject of data set [7] is four cancer cells (KB, HeLa S3, MCF-7, and Hep G2). The experiment in a line: MTT cytotoxicity, four cancer cells stated together. Format: cell-based. The note with it: Homo sapiens; range over KB, HeLa S3, MCF-7, Hep G2; read-out: IC50 values against four cancer cells. The method, then: as §3, §4
For data set [8], the system named is KB (human epidermoid carcinoma). The experiment in a line: MTT cytotoxic activity assay, KB. Conditions: 72 h, mean ± SEM of three replicates. Format: cell-based. Here is the method:
as §3, §5

Data set [9] deals with four cancer cells (KB, HeLa S3, MCF-7, and Hep G2). Conditions: HeLa S3, MCF-7, Hep G2, earlier studies, read-out: IC50 values against four cancer cells; cited from earlier work.
Data set [10] relates to HT-29 (human colon adenocarcinoma). Also noted: method as in PMID 30153471, PMID 33999337; key to IC50 ± SEM, HT-29: IC50 ≤ 10 µM = good cytotoxicity; 10 µM < IC50 ≤ 30 µM = weak cytotoxicity; inactive (IC50 > 30 µM). Conditions: MTT; results based on previous work; cited from earlier work.
For data set [11], the system named is Hep G2 (human hepatocellular carcinoma). Also noted: method as in PMID 30153471, PMID 33999337. Conditions: MTT; results based on previous work; read-out: IC50 ± SEM, Hep G2; cited from earlier work.
Data set [12] deals with MCF-7 (human breast adenocarcinoma). Also noted: method as in PMID 30153471, PMID 33999337. The note with it: MTT; results based on previous work; read-out: IC50 ± SEM, MCF-7; cited from earlier work.
Data set [13] concerns HeLa S3 (human cervical carcinoma). Also noted: method as in PMID 30153471, PMID 33999337. The note with it: MTT; results based on previous work; read-out: IC50 ± SEM, HeLa S3; cited from earlier work.
The test system of data set [14] is KB (human epidermoid carcinoma). Also noted: method as in PMID 30153471, PMID 33999337. The note with it: MTT; results based on previous work; read-out: IC50 ± SEM, KB; cited from earlier work.

Broadly, the IC50 is the midpoint of a concentration-inhibition curve. Turning to `C[C@H]1Oc2c(c(O)c3c(=O)c4ccc(O)c(O)c4oc3c2CCC(C)(C)O)C1(C)C` [Compound 4, gerontoxanthone C hydrate], the concentration for half-maximal inhibition (IC50) in data set [1] was 20 ± 4 µM; in data set [2], 6.3 ± 0.6 µM; in data set [3], 5.7 ± 0.3 µM; in [4], 20.3 ± 0.6 µM; in data set [6], 5.6 ± 0.1 µM; in data set [7] it was 5.6 to 7.5 µM. Besides, the concentration for half-maximal inhibition (IC50) in [8] came out at 7.5 ± 0.8 µM. The “suppression of NO production, BV-2” value in data set [1] is “over 70%”. Further, the “IC50 of NO inhibition lower than the cytotoxic activity, BV-2” value in data set [1] came to 1.4 fold. The molecule further gave a 50% inhibitory concentration (IC50) at 16 h in data set [5] of 27.7 ± 6.4 µM.

`C[C@@H]1Oc2cc(O)c3c(=O)c4ccc(O)c(O)c4oc3c2C1(C)C` [Compound 7, 2-deprenylrheediaxanthone B]: the IC50 in data set [1] was 28.7 ± 2.3 µM; in data set [9], less than 10 µM; in data set [11], 10 ± 0.2 µM; in data set [12], 6.5 ± 0.2 µM; in data set [13] it was 6 ± 0.5 µM; in data set [14] it was 5.1 ± 0.4 µM. The “suppression of NO production, BV-2” value in data set [1] is “over 70%”. Moreover, in [1], the “IC50 of NO inhibition lower than the cytotoxic activity, BV-2” value was determined as 1.1 fold. The molecule further came in with a concentration for half-maximal inhibition (IC50) at 16 h in data set [5] of 31.7 ± 4.7 µM. The “IC50 ± SEM, HT-29” value in data set [10] is “inactive”.
